Values joined by “and” are separate entries in the source; they are usually repeats but may differ in a detail not shown here. Identical values can stand only once. Counter-ions that a name gives are not always drawn.

Chain of S. aureus GyrB ATPase (P0A0K8 whole entry): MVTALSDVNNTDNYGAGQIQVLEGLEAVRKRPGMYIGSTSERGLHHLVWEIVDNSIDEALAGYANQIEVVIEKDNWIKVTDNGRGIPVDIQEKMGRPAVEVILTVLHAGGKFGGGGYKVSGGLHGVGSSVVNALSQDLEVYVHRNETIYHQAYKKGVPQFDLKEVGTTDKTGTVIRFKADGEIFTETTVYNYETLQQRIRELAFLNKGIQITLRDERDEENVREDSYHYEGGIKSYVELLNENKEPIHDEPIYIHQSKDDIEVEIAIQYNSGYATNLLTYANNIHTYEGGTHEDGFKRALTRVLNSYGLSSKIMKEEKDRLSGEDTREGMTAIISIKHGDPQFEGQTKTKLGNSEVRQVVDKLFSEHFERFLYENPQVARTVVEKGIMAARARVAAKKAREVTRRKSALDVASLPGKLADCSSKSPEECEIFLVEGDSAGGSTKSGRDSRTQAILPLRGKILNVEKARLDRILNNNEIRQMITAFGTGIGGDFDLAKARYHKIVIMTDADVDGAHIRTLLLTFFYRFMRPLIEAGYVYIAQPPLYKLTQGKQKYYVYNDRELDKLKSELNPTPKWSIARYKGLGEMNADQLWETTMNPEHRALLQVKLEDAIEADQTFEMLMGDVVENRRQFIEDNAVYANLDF
Chain of S. aureus GyrB ATPase (P0AES4 whole entry, further chain): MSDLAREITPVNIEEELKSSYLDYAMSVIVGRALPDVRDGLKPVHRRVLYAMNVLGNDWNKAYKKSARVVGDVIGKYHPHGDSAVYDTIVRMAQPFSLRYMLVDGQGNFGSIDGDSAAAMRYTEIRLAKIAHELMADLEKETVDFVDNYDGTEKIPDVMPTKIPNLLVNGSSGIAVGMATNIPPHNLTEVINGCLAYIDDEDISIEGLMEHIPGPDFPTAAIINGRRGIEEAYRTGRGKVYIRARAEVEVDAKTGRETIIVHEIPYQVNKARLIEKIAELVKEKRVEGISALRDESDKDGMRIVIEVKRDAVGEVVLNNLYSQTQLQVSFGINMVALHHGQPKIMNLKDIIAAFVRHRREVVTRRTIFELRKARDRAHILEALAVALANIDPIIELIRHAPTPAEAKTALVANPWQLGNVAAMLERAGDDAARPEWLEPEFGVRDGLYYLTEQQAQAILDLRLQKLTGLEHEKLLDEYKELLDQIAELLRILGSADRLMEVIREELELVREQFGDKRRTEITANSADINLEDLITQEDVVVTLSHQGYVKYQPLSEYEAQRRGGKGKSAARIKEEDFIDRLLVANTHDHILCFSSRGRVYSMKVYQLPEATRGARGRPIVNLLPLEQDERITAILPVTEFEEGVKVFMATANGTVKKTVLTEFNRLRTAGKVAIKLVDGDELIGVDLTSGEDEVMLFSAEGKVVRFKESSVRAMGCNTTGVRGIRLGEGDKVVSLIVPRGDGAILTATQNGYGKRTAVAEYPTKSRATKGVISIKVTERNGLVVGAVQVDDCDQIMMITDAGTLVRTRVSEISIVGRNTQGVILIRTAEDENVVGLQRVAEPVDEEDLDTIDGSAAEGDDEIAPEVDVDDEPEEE

The target in the first assay is S. aureus GyrB ATPase (Staphylococcus aureus, UniProt P0A0K8). The assay is described as follows: biochemical. The note with it: compound at 1 μM; one value per test if tested more than once; 1 µM. The method, boiled down:
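IC50 values derive from 10-point titrations of compound (in DMSO). Phosphate formed from 250 μM ATP was quantified by acidic molybdate/malachite green after quenching.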
On to `CCNC(=O)Nc1cc(-c2nc(C(F)(F)F)cs2)c(-c2ccc3c(c2)c(=O)c(C(=O)O)cn3CC2CCN(CCN3CCOCC3)C2)cn1` (stereo not shown) [Example 306, 6-(6-(3-ethylureido)-4-(4-(trifluoromethyl)thiazol-2-yl)pyridin-3-yl)-1-((1-(2-morpholinoethyl)pyrrolidin-3-yl)methyl)-4-oxo-1,4-dihydroquinoline-3-carboxylic acid], for which the “% Inhibition of S. aureus GyrB ATPase” value is 100% and 102%.
Turning to `CCNC(=O)Nc1cc(-c2nc(C(F)(F)F)cs2)c(-c2ccc3c(c2)c(=O)c(C(=O)O)cn3CCOC)cn1` [Example 1, 6-(6-(3-Ethylureido)-4-(4-(trifluoromethyl)thiazol-2-yl)pyridin-3-yl)-1-(2-methoxyethyl)-4-oxo-1,4-dihydroquinoline-3-carboxylic acid], the “% Inhibition of S. aureus GyrB ATPase” value is 104%.

Staying with this assay, now noted: compound at 1 μM; one value per test if tested more than once; read-out: % Inhibition of S. aureus GyrB ATPase.
In the case of `CCNC(=O)Nc1cc(-c2nc(C(F)(F)F)cs2)c(-c2ccc3c(c2)c(=O)c(C(=O)O)cn3[C@H](CO)CC(C)C)cn1` [Example 83, (S)-6-(6-(3-ethylureido)-4-(4-(trifluoromethyl)thiazol-2-yl)pyridin-3-yl)-1-(1-hydroxy-4-methylpentan-2-yl)-4-oxo-1,4-dihydroquinoline-3-carboxylic acid], the inhibition at 1 µM is 96%.
On the same count and under the same terms, to `CCCNC(=O)Nc1cc(-c2nc(C(F)(F)F)cs2)c(-c2ccc3c(c2)c(=O)c(C(=O)O)cn3C2CCOCC2)cn1` [Example 192, 4-oxo-6-(6-(3-propylureido)-4-(4-(trifluoromethyl)thiazol-2-yl)pyridin-3-yl)-1-(tetrahydro-2H-pyran-4-yl)-1,4-dihydroquinoline-3-carboxylic acid] belongs 92%.
Regarding `CCNC(=O)Nc1cc(-c2nc(C(F)(F)F)cs2)c(-c2ccc3c(c2)c(=O)c(C(=O)O)cn3CC2CCN(CCN3CCOCC3)C2)cn1` (stereo not shown) [Example 306, 6-(6-(3-ethylureido)-4-(4-(trifluoromethyl)thiazol-2-yl)pyridin-3-yl)-1-((1-(2-morpholinoethyl)pyrrolidin-3-yl)methyl)-4-oxo-1,4-dihydroquinoline-3-carboxylic acid], the inhibition at 1 µM was found to be 105%.
For the compound `CCNC(=O)Nc1cc(-c2nc(C(F)(F)F)cs2)c(-c2ccc3c(=O)c(C(=O)O)cn(Cc4ccccc4)c3c2)cn1` [Example 28, 1-benzyl-7-{6-[(ethylcarbamoyl)amino]-4-[4-(trifluoromethyl)-1,3-thiazol-2-yl]pyridin-3-yl}-4-oxo-1,4-dihydroquinoline-3-carboxylic acid], the inhibition at 1 µM is 97%.
Still for that read-out and setting: with `CCNC(=O)Nc1cc(-c2nc(C(F)(F)F)cs2)c(-c2ccc3c(c2)c(=O)c(C(=O)N2CCNCC2)cn3C2CN(C)C2)cn1` [Example 171, 1-ethyl-3-(5-(1-(1-methylazetidin-3-yl)-4-oxo-3-(piperazine-1-carbonyl)-1,4-dihydroquinolin-6-yl)-4-(4-(trifluoromethyl)thiazol-2-yl)pyridin-2-yl)urea] the figure was 112%; with `CCNC(=O)Nc1cc(-c2nc(C(F)(F)F)cs2)c(-c2ccc3c(=O)c(C(=O)NCCCO)cn(CCO)c3c2)cn1` [Example 365, 7-{6-[(ethylcarbamoyl)amino]-4-[4-(trifluoromethyl)-1,3-thiazol-2-yl]pyridin-3-yl}-1-(2-hydroxyethyl)-N-(3-hydroxypropyl)-4-oxo-1,4-dihydroquinoline-3-carboxamide], 99%.
Turning to `CCNC(=O)Nc1cc(-c2nc(C(F)(F)F)cs2)c(-c2ccc3c(=O)c(C(=O)NCCN4CCOCC4)cn(Cc4ccccc4)c3c2)cn1` [Example 357, 1-Benzyl-7-{6-[(ethylcarbamoyl)amino]-4-[4-(trifluoromethyl)-1,3-thiazol-2-yl]pyridin-3-yl}-N-[2-(morpholin-4-yl)ethyl]-4-oxo-1,4-dihydroquinoline-3-carboxamide], the inhibition at 1 µM stood at 87%.
On to `CCNC(=O)Nc1cc(-c2nc(C(F)(F)F)cs2)c(-c2ccc3c(c2)c(=O)c(C(=O)NCC(O)CO)cn3C2CC2)cn1` (stereo not shown) [Example 328, 1-Cyclopropyl-N-(2,3-dihydroxy-propyl)-6-(6-(3-ethylureido)-4-(4-(trifluoromethyl)thiazol-2-yl)pyridin-3-yl)-4-oxo-1,4-dihydroquinoline-3-carboxamide], for which the inhibition at 1 µM worked out at 109%.
Regarding `CCNC(=O)Nc1cc(-c2nc(C(F)(F)F)cs2)c(-c2ccc3c(=O)c(C(=O)NCCO)cn(CCC(C)C)c3c2)cn1` [Example 336, 7-{6-[(ethylcarbamoyl)amino]-4-[4-(trifluoromethyl)-1,3-thiazol-2-yl]pyridin-3-yl}-N-(2-hydroxyethyl)-1-(3-methylbutyl)-4-oxo-1,4-dihydroquinoline-3-carboxamide], the inhibition at 1 µM is 109%.
With `CCNC(=O)Nc1cc(-c2nc(C(F)(F)F)cs2)c(-c2ccc3c(c2)c(=O)c(C(=O)O)cn3C[C@H]2CCN(CCN3CCOCC3)C2)cn1` [Example 238, (S)-6-(6-(3-ethylureido)-4-(4-(trifluoromethyl)thiazol-2-yl)pyridin-3-yl)-1-((1-(2-morpholinoethyl)pyrrolidin-3-yl)methyl)-4-oxo-1,4-dihydroquinoline-3-carboxylic acid], the inhibition at 1 µM is 97%.
On the same count and under the same terms, to `CCCNC(=O)Nc1cc(-c2nc(C(F)(F)F)cs2)c(-c2ccc3c(c2)c(=O)c(C(=O)NCCO)cn3CCOC)cn1` [Example 207, N-(2-hydroxyethyl)-1-(2-methoxyethyl)-4-oxo-6-(6-(3-propylureido)-4-(4-(trifluoromethyl)thiazol-2-yl)pyridin-3-yl)-1,4-dihydroquinoline-3-carboxamide] belongs 93%; to `CCNC(=O)Nc1cc(-c2nc(C(F)(F)F)cs2)c(-c2ccc3c(c2)c(=O)c(C(=O)O)cn3[C@H]2CCCN(CCN(CC)CC)C2)cn1` [Example 287, (S)-ethyl 1-(1-(2-(diethylamino)ethyl)piperidin-3-yl)-6-(6-(3-ethylureido)-4-(4-(trifluoromethyl)thiazol-2-yl)pyridin-3-yl)-4-oxo-1,4-dihydroquinoline-3-carboxylic acid trifluoroacetate], 100%.
For `CCCNC(=O)Nc1cc(-c2nc(C(F)(F)F)cs2)c(-c2ccc3c(c2)c(=O)c(C(=O)N2CCN(C(C)=O)CC2)cn3C2CN(C)C2)cn1` [Example 168, 1-(5-(3-(4-acetylpiperazine-1-carbonyl)-1-(1-methylazetidin-3-yl)-4-oxo-1,4-dihydroquinolin-6-yl)-4-(4-(trifluoromethyl)thiazol-2-yl)pyridin-2-yl)-3-propylurea], the inhibition at 1 µM came to 102%.
On to `CCNC(=O)Nc1cc(-c2nc(C(F)(F)F)cs2)c(-c2ccc3c(c2)c(=O)c(C(=O)O)cn3C[C@H]2CCNC2)cn1` [Example 243, (S)-6-(6-(3-ethylureido)-4-(4-(trifluoromethyl)thiazol-2-yl)pyridin-3-yl)-4-oxo-1-(pyrrolidin-3-ylmethyl)-1,4-dihydroquinoline-3-carboxylic acid], for which the inhibition at 1 µM was 116%.
As for `CCNC(=O)Nc1cc(-c2nc(C(F)(F)F)cs2)c(-c2ccc3c(=O)c(C(=O)O)cn(CCO)c3c2)cn1` [Example 30, 7-{6-[(ethylcarbamoyl)amino]-4-[4-(trifluoromethyl)-1,3-thiazol-2-yl]pyridin-3-yl}-1-(2-hydroxyethyl)-4-oxo-1,4-dihydroquinoline-3-carboxylic acid], the inhibition at 1 µM is 95%.
As to `CCCNC(=O)Nc1cc(-c2nc(C(F)(F)F)cs2)c(-c2ccc3c(c2)c(=O)c(C(=O)O)cn3CCOC)cn1` [Example 191, 1-(2-methoxyethyl)-4-oxo-6-(6-(3-propylureido)-4-(4-(trifluoromethyl)thiazol-2-yl)pyridin-3-yl)-1,4-dihydroquinoline-3-carboxylic acid], the inhibition at 1 µM is 94%.
As to `CCNC(=O)Nc1cc(-c2nc(C(F)(F)F)cs2)c(-c2ccc3c(=O)c(C(=O)O)c[nH]c3c2)cn1` [Example 23, 7-(6-(3-Ethylureido)-4-(4-(trifluoromethyl)thiazol-2-yl)pyridin-3-yl)-4-oxo-1,4-dihydroquinoline-3-carboxylic acid], the inhibition at 1 µM was found to be 101%.
Take `CCCn1cc(C(=O)NCCN2CCN(C)CC2)c(=O)c2ccc(-c3cnc(NC(=O)NCC)cc3-c3nc(C(F)(F)F)cs3)cc21` [Example 352, 7-{6-[(Ethylcarbamoyl)amino]-4-[4-(trifluoromethyl)-1,3-thiazol-2-yl]pyridin-3-yl}-N-[2-(4-methylpiperazin-1-yl)ethyl]-4-oxo-1-propyl-1,4-dihydroquinoline-3-carboxamide]: the inhibition at 1 µM was found to be 88%.
On the same count and under the same terms, to `CCNC(=O)Nc1cc(-c2nc(C(F)(F)F)cs2)c(-c2ccc3c(c2)c(=O)c(C(=O)NC2CCOCC2)cn3C(COC)COC)cn1` [Example 128, 1-(1,3-dimethoxypropan-2-yl)-6-(6-(3-ethylureido)-4-(4-(trifluoromethyl)thiazol-2-yl)pyridin-3-yl)-4-oxo-N-(tetrahydro-2H-pyran-4-yl)-1,4-dihydroquinoline-3-carboxamide] belongs 92%; to `CC(C)NC(=O)Nc1cc(-c2nc(C(F)(F)F)cs2)c(-c2ccc3c(c2)c(=O)c(C(=O)NCCO)cn3C2CCOCC2)cn1` [Example 210, N-(2-hydroxyethyl)-6-(6-(3-isopropylureido)-4-(4-(trifluoromethyl)thiazol-2-yl)pyridin-3-yl)-4-oxo-1-(tetrahydro-2H-pyran-4-yl)-1,4-dihydroquinoline-3-carboxamide], 93%; to `CCNC(=O)Nc1cc(-c2nc(C(F)(F)F)cs2)c(-c2ccc3c(c2)c(=O)c(C(=O)O)cn3C2(CO)CCOCC2)cn1` [Example 122, 6-(6-(3-ethylureido)-4-(4-(trifluoromethyl)thiazol-2-yl)pyridin-3-yl)-1-(4-(hydroxymethyl)tetrahydro-2H-pyran-4-yl)-4-oxo-1,4-dihydroquinoline-3-carboxylic acid], 95%.
For `CCNC(=O)Nc1cc(-c2nc(C(F)(F)F)cs2)c(-c2ccc3c(c2)c(=O)c(C(=O)O)cn3[C@H]2CCCNC2)cn1` [Example 245, (S)-6-(6-(3-ethylureido)-4-(4-(trifluoromethyl)thiazol-2-yl)pyridin-3-yl)-4-oxo-1-(piperidin-3-yl)-1,4-dihydroquinoline-3-carboxylic acid], the inhibition at 1 µM was 105%.
Take `CCNC(=O)Nc1cc(-c2nc(C(F)(F)F)cs2)c(-c2ccc3c(c2)c(=O)c(C(=O)O)cn3CCOC)cn1` [Example 1, 6-(6-(3-Ethylureido)-4-(4-(trifluoromethyl)thiazol-2-yl)pyridin-3-yl)-1-(2-methoxyethyl)-4-oxo-1,4-dihydroquinoline-3-carboxylic acid]: the inhibition at 1 µM came to 100%.

The record behind these values is US8283361B2 (AstraZeneca AB, priority 2008, dated 2012).
